In US20140220069A1, “ACTIVE INGREDIENT DERIVED FROM TORULASPORA DELBRUECKII AND COSMETIC USE FOR IMPROVING AND/OR REPAIRING THE BARRIER FUNCTION OF THE SKIN” (SOCIETE INDUSTRIELLE LIMOUSINE D'APPLICATION BIOLOGIQUE, priority 2011, published 2014):

Key:
E-cadherin = assay: Synthesis of E-cadherin on reconstructed epidermis (immunohistological marking, image analysis); type: cell-based, human
Description: (§1) The procedure used to validate the agonist and the antagonist of the nAChRs is illustrated below for the synthesis of loricrin on reconstructed epidermis. It also applies to the synthesis of E-cadherin on reconstructed epidermis. The inserts comprising the epidermis under construction are placed in a culture medium containing: • 1,000 μM of mecamylamine (reversible antagonist of the nACHRs) or • 500 μM of nicotine (reversible agonist of the nACHRs).
(§2) On D0, the human keratinocytes are cultivated in a culture medium and then inoculated on an insert.
(§3) On D13 and/or D18, the inserts are recovered, fixed, dehydrated, and incorporated into paraffin.
(§4) Next, cuts are made, and then an immunohistological marking of the loricrin or the E-cadherin is done.
(§5) The display is then produced on a microscope coupled to an image analysis system. The intensity of the fluorescence (green color) is proportional to the synthesis of loricrin or cadherin.

loricrin [1] = assay: Synthesis of loricrin on reconstructed epidermis (immunohistological marking, image analysis); type: cell-based, human; conditions: for Synthesis of Loricrin: D18, untreated control 100%; for synthesis of loricrin relative to the untreated control: mecamylamine 1,000 μM, nicotine 500 μM
Description: as §1
On D18, the inserts are recovered, fixed, dehydrated, and incorporated into paraffin.
Cuts are made, and then an immunohistological marking of the loricrin is done.
Visualization is then done on a microscope coupled to an image analysis system. The intensity of the fluorescence (green color) is proportional to the synthesis of loricrin.
as §2, §3, §4, §5

loricrin [2] = assay: Synthesis of loricrin by Western Blot on normal human keratinocytes in a single layer; type: cell-based; conditions: for effect on the synthesis of human keratinocyte loricrin in a single layer: human keratinocytes in a single layer
Description: The test is done on normal human keratinocytes, according to the operating procedure described in Item A.II of the part on the evaluation of the cosmetic effectiveness.
It was accomplished by Western Blot on normal human keratinocytes that are isolated from foreskins, according to the operating procedure described below.
On D0, the human keratinocytes are inoculated and then incubated at 37° C.
The cells are then incubated at 37° C.
On D7, the cellular extracts are recovered, and the Western Blot metering is carried out.

Structure (SMILES)	effect on the synthesis of E-cadherin on reconstructed epidermis (E-cadherin)	Synthesis of Loricrin (loricrin [1]; 1,000 μM) [%]	synthesis of loricrin relative to the untreated control (loricrin [1])	Change in loricrin synthesis versus control (loricrin [2]; 350 μM, normal human keratinocytes, Western Blot on D7) [%]	effect on the synthesis of human keratinocyte loricrin in a single layer (loricrin [2])	Synthesis of Loricrin (loricrin [1]; 500 μM) [%]	Ratio of Loricrin/Control (%) (loricrin [2])
CNC1(C)C2CCC(C2)C1(C)C (stereo not shown) [Mecamylamine, mecamylamine]	inhibiting effect	53	reduced	−57	inhibiting effect		
CN1CCCC1c1cccnc1 (stereo not shown) [Nicotine, nicotine]	stimulating effect		increased		stimulating effect	113	+51%
